Experimental data: patent US20250263436A1, “BROAD-SPECTRUM ANTIVIRAL DRUG FOR ENTEROVIRUS, AND APPLICATION” (WUHAN INSTITUTE OF VIROLOGY, CHINESE ACADEMY OF SCIENCES, priority 2020, published 2025)
Where “and” joins values, the source holds several entries; their conditions need not be identical. Identical values can stand only once. Entries after “also recorded” stand apart in the source; their conditions may differ.

Legend:
[1] = Toxicity assay in RD cells (CCK-8); assay type: cell-based; conditions: human
Protocol: (§1) (1) Different cells were plated in a 96-well plate at 100 μL per well.
(§2) (2) When the cells grew to a confluence of 70%-80%, the DMEM medium containing 10% serum was replaced with a DMEM medium containing 2% serum, and a certain concentration gradient of polypeptide RQ was added, so that the final concentrations of the polypeptide in the wells were 0.073242 μM, 0.146484 μM, 0.292969 μM, 0.585938 μM, 1.171875 μM, 2.34375 μM, 4.6875 μM, 9.375 μM, 18.75 μM, 37.5 μM, 75 μM, 150 μM, and 300 μM, respectively.
(§3) (3) The samples were collected 24 h after the addition of the polypeptide, and then 10 μL of live cell detection reagent CCK-8 was added to each well and mixed well.
(§4) (4) The plate was placed at 37° C. for 2 h.
(§5) (5) The absorbance value at OD450 was detected by a microplate reader.
(§6) (1) RD cells were plated in a 96-well plate at 100 μL per well.
(§7) (2) When the cells grew to a confluence of 70%-80%, the DMEM medium containing 10% serum was replaced with a DMEM medium containing 2% serum, and B-RQ was added so that the final concentrations in the wells were 0.46 μM, 2.34 μM, 4.68 μM, 9.37 μM, 18.75 μM, 37.5 μM, 75 μM, and 150 μM.

RD cells = test: Toxicity assay in RD cells (CCK-8); assay type: cell-based; conditions: RD cells, 24 h
Protocol: as §1, §2, §3, §4, §5, §6, §7

CVB3 = test: Inhibition of CVB3 in RD cells (viral RNA, qRT-PCR); assay type: cell-based; conditions: inhibiting CVB3 in RD cells
Protocol: (§8) (1) RD cells were plated in a 24-well plate.
(2) When the cells grew to a confluence of 70%-80%, the DMEM medium containing 10% serum was replaced with a DMEM medium containing 2% serum (the DMEM medium containing 2% serum was added in each well at an amount of 0.5 mL), and 5 μL of CVB3 virus of 1×10^6 PFU/mL was added to each well.
(§9) (3) After 1 h, the polypeptides with final concentrations of 0.3125 μM, 0.625 μM, 1.25 μM, 2.5 μM, and 5 μM were added respectively. The group without polypeptide added was used as a control.
(4) The samples were collected 24 h after the infection of CVB3 virus, and RNA was extracted with the total RNA extraction kit.
(§10) (5) The supernatant was discarded, then 350 μL of TRK lysate was added to each well, and the plate was put on a shaker for 5 min.
(§11) (6) 350 μL of 70% ethanol (DEPC) was added to each well, and then the plate was put on a shaker for 5 min.
(§12) (7) The solution in each well was transferred to a RNA extraction column for 1 min of centrifugation at 12000 g.
(§13) (8) The solution obtained in the recovery tube was reloaded on the column again for 1 min of centrifugation at 12000 g.
(§14) (9) RNA washing buffer 1 was added in the column for 30 s of centrifugation at 12000 g. […]
(§15) (14) 2 μL of RNA sample was subjected to a fluorescence quantitative experiment using the one step qRT-PCR kit. […]

Echo 11 = test: Inhibition of Echo 11 in RD cells (viral RNA, qRT-PCR); assay type: cell-based; conditions: inhibiting Echo 11 in RD cells
Protocol: as §8
(2) When the cells grew to a confluence of 70%-80%, the DMEM medium containing 10% serum was replaced with a DMEM medium containing 2% serum (the DMEM medium containing 2% serum was added in each well at an amount of 0.5 mL), and 5 μL of Echo 11 virus of 1×10^6 PFU/mL was added to each well.
as §9
(4) The samples were collected 24 h after the infection of Echo 11 virus, and RNA was extracted with the total RNA extraction kit.
as §10, §11, §12, §13, §14, §15

[2] = test system: cell-penetrating peptide YGRKKRRQRRR (TAT)

Work on `CC(C)C[C@H](NC(=O)[C@H](C)NC(=O)[C@H](CCC(=O)O)NC(=O)[C@H](CC(C)C)NC(=O)[C@@H](NC(=O)[C@H](C)NC(=O)CNC(=O)[C@@H](NC(=O)[C@H](CO)NC(=O)[C@H](Cc1c[nH]cn1)NC(=O)[C@H](CCCNC(=N)N)NC(=O)[C@H](Cc1c[nH]cn1)NC(=O)[C@H](CC(N)=O)NC(=O)[C@H](Cc1ccc(O)cc1)NC(=O)[C@H](CCC(=O)O)NC(=O)[C@H](CCCNC(=N)N)NC(=O)CNC(=O)[C@H](CO)NC(=O)CNC(=O)[C@H](CCCNC(=N)N)NC(=O)[C@H](CCCNC(=N)N)NC(=O)[C@H](CCCNC(=N)N)NC(=O)[C@H](CCC(N)=O)NC(=O)[C@H](CCCNC(=N)N)NC(=O)[C@H](CCCNC(=N)N)NC(=O)[C@H](CCCCN)NC(=O)[C@H](CCCCN)NC(=O)[C@H](CCCNC(=N)N)NC(=O)CNC(=O)[C@@H](N)Cc1ccc(O)cc1)C(C)C)[C@@H](C)O)C(=O)N[C@@H](Cc1ccccc1)C(=O)N[C@@H](CCC(N)=O)C(=O)O` [B-RQ] yielded a viability at 24 h, 0.46875 µM ([1]; RD cells, B-RQ 0.46875 μM, 24 h, read-out: Cell viability (%)) of 99%, a viability at 24 h, 2.34375 µM ([1]; RD cells, B-RQ 2.34375 μM, 24 h, read-out: Cell viability (%)) of 99.1% and a viability at 24 h, 4.6875 µM ([1]; RD cells, B-RQ 4.6875 μM, 24 h, read-out: Cell viability (%)) of 98.7%. For the same compound, the viability at 24 h, 9.375 µM ([1]; RD cells, B-RQ 9.375 μM, 24 h, read-out: Cell viability (%)) was 99.3%, the viability at 24 h, 18.75 µM ([1]; RD cells, B-RQ 18.75 μM, 24 h, read-out: Cell viability (%)) was 97.8% and the viability at 24 h, 37.5 µM ([1]; RD cells, B-RQ 37.5 μM, 24 h, read-out: Cell viability (%)) was 99.4%. For the same compound, the viability at 24 h, 75 µM ([1]; RD cells, B-RQ 75 μM, 24 h, read-out: Cell viability (%)) was 96%, the viability at 24 h, 150 µM ([1]; RD cells, B-RQ 150 μM, 24 h, read-out: Cell viability (%)) was 95.5% and the CC50 at 24 h ([1]; Table 1 (RD cells)) was greater than 75000 nM. The “Cell viability (%)” value (RD cells; B-RQ 0.46875 μM) was 99.47% and 98.27%, the “Cell viability (%)” value (RD cells; B-RQ 2.34375 μM) was 97.93% and 97.19% and the “Cell viability (%)” value (RD cells; B-RQ 4.6875 μM) was 100.7775% and 96.97%. The “Cell viability (%)” value (RD cells; B-RQ 9.375 μM) was 96.62% and 96.17%, the “Cell viability (%)” value (RD cells; B-RQ 18.75 μM) was 97.36% and the “Cell viability (%)” value (RD cells; B-RQ 37.5 μM) was 99.64% and 99.24%. For the same compound, the “Cell viability (%)” value (RD cells; B-RQ 75 μM) was 95.66%, the “Cell viability (%)” value (RD cells; B-RQ 150 μM) was 95.94% and 95.32% and the IC50 (CVB3) was 2290 nM. The IC50 (Echo 11) was 380 nM.
With MBP-EV71 2C protein the “helicase activity (unwinding of HEX-labeled dsRNA substrate, gel electrophoresis)” value [2] was “the control TAT did not affect the helicase activity of 2C (lane 4)” and the “helicase activity (unwinding of HEX-labeled dsRNA substrate, gel electrophoresis)” value (polypeptide RQ) was “the addition of RQ inhibited the helicase activity of 2C (lane 5); also recorded: RQ inhibited the helicase activity of EV71 2C in a dose-dependent manner”.
